Broadly, the Ki is a measure of affinity in units of concentration, obtained from inhibition or displacement.

Each structure is given as a SMILES string.

Peptidyl-prolyl cis-trans isomerase FKBP1A, sequence (P62942 whole entry): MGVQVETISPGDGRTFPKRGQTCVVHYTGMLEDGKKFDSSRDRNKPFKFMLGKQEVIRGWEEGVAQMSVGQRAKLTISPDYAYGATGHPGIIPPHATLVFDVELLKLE

The first assay concerns the target Peptidyl-prolyl cis-trans isomerase FKBP1A (Homo sapiens, UniProt P62942). The experiment in a line: Ability to inhibit peptidyl-prolyl isomerase (PPIase, or rotamase) activity of FK506 binding protein 12.
The compound `CCCCCCCCS(=O)(=O)N1CCCC1C(=O)NCCCc1ccccc1` (centres undefined) showed a Ki of 5.4 µM.

On to `Cc1ccc(S(=O)(=O)N2CCCC2C(=O)NCCCc2ccccc2)cc1` (centres undefined), for which the Ki was 7.6 µM.

Compound `CCc1ccccc1NC(=O)N1CCCC1C(=O)NCc1ccccc1` (centres undefined) returned a Ki above 50 µM.

Turning to `CCCCNC(=O)C1CCCCN1S(=O)(=O)/C=C/c1ccccc1` (centres undefined), the affinity, expressed as Ki, was 11 µM.

`O=C(NCCCc1ccccc1)C1CCCN1S(=O)(=O)c1ccccc1` (centres undefined) came in with a Ki of 9.5 µM.

With `O=C(NCCc1ccccc1)C1CCCN1C(=O)Nc1ccccc1` (centres undefined), the Ki came to 30 µM.

Consider `CCc1ccccc1NC(=O)N1CCCC1C(=O)NCCCc1ccccc1` (centres undefined), for which the Ki was above 50 µM.

The compound `CCCCNC(=O)C1CCCCN1S(=O)(=O)Cc1ccccc1` (centres undefined) returned a Ki above 50 µM.

Regarding `CCc1ccc(S(=O)(=O)N2CCCCC2C(=O)NCCc2ccccc2)cc1` (centres undefined), affinity was put at a Ki of 1.6 µM.

In the case of `CCCCNC(=O)C1CCCN1S(=O)(=O)c1ccc(C)cc1` (centres undefined), the Ki was above 50 µM.

`O=C(NCCc1ccccc1)C1CCCCN1S(=O)(=O)/C=C/c1ccccc1` (centres undefined) registered a Ki of 2.4 µM.

As to `O=C(NCCCc1ccccc1)[C@@H]1CCCN1S(=O)(=O)Cc1ccccc1`, the Ki worked out at 2.8 µM.

`O=C(NCCCc1ccccc1)C1CCCN1S(=O)(=O)/C=C/c1ccccc1` (centres undefined) registered a Ki of 1.3 µM.

`CCc1ccc(S(=O)(=O)N2CCCCC2C(=O)NCc2ccccc2)cc1` (centres undefined) came in with a Ki of 1.3 µM.

`O=C(NCc1ccccc1)C1CCCN1S(=O)(=O)CCc1ccccc1` (centres undefined) gave an inhibition constant Ki of 22 µM.

For `O=C(NCCCc1ccccc1)C1CCCN1C(=O)Nc1ccccc1` (centres undefined), the affinity, expressed as Ki, was 1.4 µM.

`CCCCCCCCS(=O)(=O)N1CCCC1C(=O)NCc1ccccc1` (centres undefined) came in with a Ki above 50 µM.

For the compound `O=C(NCCc1ccccc1)C1CCCN1S(=O)(=O)c1ccccc1` (centres undefined), affinity was put at a Ki of 37 µM.

With `O=C(NCCc1ccccc1)C1CCCN1S(=O)(=O)/C=C/c1ccccc1` (centres undefined), the affinity, expressed as Ki, was 22 µM.

Regarding `CCCCNC(=O)C1CCCN1C(=O)Nc1ccccc1CC` (centres undefined), the Ki was above 50 µM.

`O=C(NCc1ccccc1)C1CCCCN1S(=O)(=O)c1ccccc1` (centres undefined) had a Ki of 2.5 µM.

Consider `CCCCNC(=O)C1CCCCN1S(=O)(=O)c1ccc(CC)cc1` (centres undefined), for which the Ki is 1.2 µM.

As to `Cc1ccc(S(=O)(=O)N2CCCC2C(=O)NCc2ccccc2)cc1` (centres undefined), the Ki was above 50 µM.

Compound `O=C(NCCc1ccccc1)C1CCCCN1S(=O)(=O)c1ccccc1` (centres undefined) gave a Ki of 1.5 µM.

The compound `O=C(NCCCCc1ccccc1)[C@@H]1CCCCN1C(=O)NCc1ccccc1` registered a Ki of 1.6 µM.

`CCCCNC(=O)C1CCCCN1S(=O)(=O)c1ccccc1` (centres undefined) registered an inhibition constant (Ki) of 4.7 µM.

`O=C(NCCCc1ccccc1)[C@@H]1CCCN1C(=O)NCc1ccccc1` came in with a Ki of 4.2 µM.

Compound `O=C(NCCc1ccccc1)C1CCCN1C(=O)NCc1ccccc1` (centres undefined) showed a Ki above 30 µM.

For the compound `O=C(NCc1ccccc1)C1CCCCN1S(=O)(=O)Cc1ccccc1` (centres undefined), the Ki amounted to 39 µM.

In turn, `O=C(NCCCc1ccccc1)C1CCCN1S(=O)(=O)CCc1ccccc1` (centres undefined) had a Ki of 13 µM.

In turn, `O=C(NCCCc1ccccc1)C1CCCCN1S(=O)(=O)/C=C/c1ccccc1` (centres undefined) displayed an inhibition constant Ki of 1.1 µM.

For the compound `Cc1ccc(S(=O)(=O)N2CCCC2C(=O)NCCc2ccccc2)cc1` (centres undefined), the Ki is 33 µM.

As to `O=C(NCCc1ccccc1)C1CCCN1C(=O)NC1CCCCC1` (centres undefined), the Ki is above 50 µM.

`CCc1ccccc1NC(=O)N1CCCC1C(=O)NCCc1ccccc1` (centres undefined): the Ki is above 50 µM.

With `O=C(NCCCc1ccccc1)C1CCCN1C(=O)NC1CCCCC1` (centres undefined), the Ki was above 33 µM.

Turning to `O=C(NCCCc1ccccc1)C1CCCCN1S(=O)(=O)Cc1ccccc1` (centres undefined), the affinity corresponds to a Ki of 2.2 µM.

As for `O=C(NCCc1ccccc1)C1CCCCN1S(=O)(=O)Cc1ccccc1` (centres undefined), the Ki was found to be 13 µM.

Compound `O=C(NCCc1ccccc1)C1CCCN1S(=O)(=O)CCc1ccccc1` (centres undefined) registered a Ki of 32 µM.

`CCCCNC(=O)C1CCCN1S(=O)(=O)c1ccccc1` (centres undefined) registered a Ki above 50 µM.

As for `O=C(NCc1ccccc1)C1CCCN1C(=O)NC1CCCCC1` (centres undefined), the Ki was above 50 µM.

With `CCCCNC(=O)C1CCCN1C(=O)NC1CCCCC1` (centres undefined), the inhibitory constant (Ki) was above 50 µM.

`CCCCNC(=O)C1CCCN1S(=O)(=O)CCc1ccccc1` (centres undefined) displayed a Ki of 42 µM.

`O=C(NCc1ccccc1)C1CCCCN1S(=O)(=O)/C=C/c1ccccc1` (centres undefined) returned a Ki of 3.9 µM.

Regarding `O=C(NCc1ccccc1)C1CCCN1C(=O)Nc1ccccc1` (centres undefined), the Ki amounted to 33 µM.

Regarding `O=C(NCCCc1ccccc1)C1CCCCN1S(=O)(=O)c1ccccc1` (centres undefined), affinity was put at a Ki of 0.72 µM.

In the case of `O=C(NCc1ccccc1)C1CCCN1C(=O)NCc1ccccc1` (centres undefined), the Ki was above 50 µM.

The compound `O=C(NCc1ccccc1)C1CCCN1S(=O)(=O)/C=C/c1ccccc1` (centres undefined) displayed a Ki above 50 µM.

The compound `CCCCNC(=O)C1CCCN1C(=O)NCc1ccccc1` (centres undefined) returned a Ki above 50 µM.

Regarding `CCCCCCCCS(=O)(=O)N1CCCC1C(=O)NCCc1ccccc1` (centres undefined), the Ki is above 50 µM.

A further assay relates to Mus musculus. The experiment in a line: Recovery of TH-immunostaining in […]-treated mice by post-MPTP treatment at a peroral dose of 10 mg/kg. The class given is functional, organism-based. More on the design: dose 10 mg/kg.
For the compound `O=C(NCCCc1ccccc1)[C@@H]1CCCN1S(=O)(=O)Cc1ccccc1`, the Recovery was 17%.

With `O=C(NCCCCc1ccccc1)[C@@H]1CCCCN1C(=O)NCc1ccccc1`, the Recovery came to 42%.

`O=C(NCCCc1ccccc1)[C@@H]1CCCN1C(=O)NCc1ccccc1` showed a Recovery of 31%.

The compound `O=C(NCCCCc1ccccc1)[C@@H]1CCCCN1S(=O)(=O)Cc1ccccc1` came in with a Recovery of 37%.

Compound `CCC(C)(C)C(=O)C(=O)N1CCC[C@H]1C(=O)OCCCc1cccnc1` displayed a Recovery of 40%.

The values above are taken from ChEMBL document CHEMBL1135119, “Solid-phase synthesis of FKBP12 inhibitors: N-sulfonyl and N-carbamoylprolyl/pipecolyl amides” (Bioorg Med Chem Lett, 2002).
